Experiments:
m-cGAS = m-cGAS (Mus musculus, UniProt Q8C6L5); experiment: Cell-free mouse cGAS enzyme inhibition assay (ATP depletion, Kinase-Glo Max); format: biochemical; conditions: 1 h; for inhibition at 10 µM: read-out: m-cGAS, conc. 10 μM; for inhibition at 1 µM: read-out: m-cGAS, conc. 1 μM
Protocol: (§1) Cell-free mouse and human cGAS enzyme inhibition assay (Table 2). Activity of all compounds (in Table 1) against m-cGAS (30 nM) and or h-cGAS, (100 nM) was determined by measuring the conversion of ATP and GTP (100 μM each) to cGAMP in the presence of dsDNA (5 ug/mL) in a reaction buffer composed of Tris-HCl (20 mM, pH7.4), NaCl (150 mM), MnCl2 (0.2 mM, h-cGAS) or MgCl2 (5 mM, m-cGAS) and Tween-20 (0.01%), and the remaining ATP concentration using Kinase-Glo®Max Luminescent Kinase Assay (Promega, Madison, WI), as described (Lama, et. al., 2019). Briefly, 10 μl of a master mix of 0.4 mM ATP, 0.4 mM GTP, 0.02 mg/mL dsDNA in the reaction buffer supplemented with 2 mM DTT was added to reaction wells containing TDI-6570 or TDI-8246 (2× of the desired concentration) in the same buffer ([…]) using a Thermo 8-channel Multidrop Combi dispenser. Next, 10 μl of a 4×m-cGAS (0.120 μM) or h-cGAS (0.4 μM) solution in the reaction buffer supplemented with 2 mM DTT was added to appropriate wells. Similar sets of reactions without cGAS or the inhibitor was set by adding the buffer alone. The reactions with the plates sealed were incubated at 37° C. (1 hour for m-cGAS and 3 hours for h-cGAS) and stopped by addition of 40 μl of the Kinase-Glo®Max. The luminescence was recorded in relative light units (RLUs) using a Biotek Synergy H1 Hybrid plate reader (BioTek, Winooski, VT). […] All reactions were run in triplicates and calculated using GraphPad Prism 9. The values represent mean IC50±S.D.

h-cGAS = h-cGAS (Homo sapiens, UniProt Q8N884); experiment: Cell-free human cGAS enzyme inhibition assay (ATP depletion, Kinase-Glo Max); format: biochemical; conditions: 3 h; for inhibition at 10 µM: read-out: h-cGAS, conc. 10 μM; for inhibition at 1 µM: read-out: h-cGAS, conc. 1 μM
Sequence of h-cGAS (Q8N884 whole entry): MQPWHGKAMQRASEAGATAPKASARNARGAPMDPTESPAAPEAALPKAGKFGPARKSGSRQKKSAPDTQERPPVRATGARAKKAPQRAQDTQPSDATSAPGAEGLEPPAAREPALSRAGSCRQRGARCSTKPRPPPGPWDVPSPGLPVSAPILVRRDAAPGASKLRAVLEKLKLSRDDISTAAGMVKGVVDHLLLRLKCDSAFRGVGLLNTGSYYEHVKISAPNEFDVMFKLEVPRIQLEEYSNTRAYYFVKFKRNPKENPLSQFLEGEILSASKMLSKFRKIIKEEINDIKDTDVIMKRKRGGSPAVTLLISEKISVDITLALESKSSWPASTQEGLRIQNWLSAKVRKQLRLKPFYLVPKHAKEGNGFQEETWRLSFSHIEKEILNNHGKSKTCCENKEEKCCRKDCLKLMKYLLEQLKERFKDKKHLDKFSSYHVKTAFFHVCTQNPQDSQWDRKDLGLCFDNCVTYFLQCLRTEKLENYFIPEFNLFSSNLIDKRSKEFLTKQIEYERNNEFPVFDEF
Protocol: as §1

THP1 cells = experiment: THP1-Dual cells, cell viability (CellTiter-Glo); format: cell-based
Protocol: (§2) Evaluation of active cGAS inhibitors in THP1 cells (Table 3). Cellular activity of all compounds (in Table 3) was determined using THP1-Dual™ cells as described (Lama et. al., 2019). THP1-Dual™ cells (Invivogen) (50000 cells in 100 μl media) were seeded into each well of a 96-well plate and treated with compounds at various dilution for 4 hours. Subsequently, cells were transfected with DNA (2 ug/ml) and lipofectamine and incubate the cells were incubated overnight. Ifnb expression was measured in cell supernatant using Quantiluc, nfkb expression was determined using Quantiblue, and cell viability using Promega® CellTiter-Glo®.

IFNB = experiment: THP1-Dual cells transfected with DNA, Ifnb expression (Quantiluc); format: cell-based; conditions: Homo sapiens; for inhibition at 10 µM: THP-1, 10 μM; for inhibition at 30 µM: THP-1, 30 μM
Protocol: as §2

Sequence of m-cGAS (Q8C6L5 whole entry): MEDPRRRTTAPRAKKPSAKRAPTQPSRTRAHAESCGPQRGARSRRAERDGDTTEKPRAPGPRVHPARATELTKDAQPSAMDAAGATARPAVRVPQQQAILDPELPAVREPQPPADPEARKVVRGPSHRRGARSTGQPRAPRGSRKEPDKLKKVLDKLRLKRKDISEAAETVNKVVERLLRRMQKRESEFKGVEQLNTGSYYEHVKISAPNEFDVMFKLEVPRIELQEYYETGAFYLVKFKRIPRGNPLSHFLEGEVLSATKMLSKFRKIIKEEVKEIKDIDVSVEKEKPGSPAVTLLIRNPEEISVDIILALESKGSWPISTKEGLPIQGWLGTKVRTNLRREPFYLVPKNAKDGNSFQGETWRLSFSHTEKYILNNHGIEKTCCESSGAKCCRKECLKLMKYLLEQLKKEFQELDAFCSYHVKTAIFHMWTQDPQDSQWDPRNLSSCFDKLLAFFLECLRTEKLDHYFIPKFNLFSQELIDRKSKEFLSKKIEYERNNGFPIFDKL

Compound	inhibition at 10 µM (m-cGAS)	inhibition at 10 µM (h-cGAS)	Cell viability 10 μM (THP1 cells)	Cell viability 30 μM (THP1 cells)	inhibition at 10 µM (IFNB)	inhibition at 30 µM (IFNB)	inhibition at 1 µM (h-cGAS)	inhibition at 1 µM (m-cGAS)
Cn1c2c(c3c(-c4ccc(O)nc4)cc(Cl)c(F)c31)CN(C(=O)CO)CC2 [Compound 2]	0 to 24%	0 to 24%	–	–	–	–	–	–
CC(C)(C)OC(=O)N1CCCC1C(=O)N1CCc2[nH]c3c(Cl)c(Cl)cc(-c4ccc(N)nc4)c3c2C1 (centres unmarked) [Compound 13]	0 to 24%	0 to 24%	–	–	–	–	–	–
Cn1c2c(c3c(-c4ccc(N)nc4)cc(Cl)c(Cl)c31)CN(C(=O)C1CCCN1C(=O)OC(C)(C)C)CC2 (centres unmarked) [Compound 14]	0 to 24%	0 to 24%	–	–	–	–	–	–
Cn1c2c(c3c(-c4ccn[nH]4)cc(Cl)c(Cl)c31)CN(C(=O)C1CCCN1C(=O)OC(C)(C)C)CC2 (centres unmarked) [Compound 15]	0 to 24%	0 to 24%	–	–	–	–	–	–
Cn1c2c(c3c(-c4ccn[nH]4)cc(Cl)c(Cl)c31)CN(C(=O)C1CCCN1)CC2 (centres unmarked) [Compound 18]	0 to 24%	0 to 24%	–	–	–	–	–	–
Nc1ccc(-c2cc(Cl)c(Cl)c3[nH]c4c(c23)CN(C(=O)C2(N)CC2)CC4)cn1 [Compound 19]	0 to 24%	0 to 24%	–	–	–	–	–	–
Nc1ccc(-c2cc(Cl)c(Cl)c3oc4c(c23)CN(C(=O)CO)CC4)cn1 [Compound 26]	25 to 49%	75 to 100%	+++ (+, ++, and +++ mean the compound respectively shows 25-49%; 50-74%; or 75-100% viability to cells)	+++ (+, ++, and +++ mean the compound respectively shows 25-49%; 50-74%; or 75-100% viability to cells)	50 to 74%	75 to 100%	50 to 74%	–
Cn1cc(-c2cc(Cl)c(Cl)c3oc4c(c23)CCN(C(=O)CN)C4)cn1 [Compound 40]	–	75 to 100%	+++ (+, ++, and +++ mean the compound respectively shows 25-49%; 50-74%; or 75-100% viability to cells)	− (Cell viability <24%, in THP1 cells is expressed as “−”)	75 to 100%	75 to 100%	50 to 74%	–
Cn1ccc(-c2cc(Cl)c(Cl)c3oc4c(c23)CCN(C(=O)CN)C4)n1 [Compound 41]	–	75 to 100%	+++ (+, ++, and +++ mean the compound respectively shows 25-49%; 50-74%; or 75-100% viability to cells)	− (Cell viability <24%, in THP1 cells is expressed as “−”)	50 to 74%	75 to 100%	50 to 74%	–
Cn1ccc(-c2cc(Cl)c(Cl)c3sc4c(c23)CN(C(=O)CO)CC4)n1 [Compound 46]	0 to 24%	75 to 100%	+++ (+, ++, and +++ mean the compound respectively shows 25-49%; 50-74%; or 75-100% viability to cells)	++ (+, ++, and +++ mean the compound respectively shows 25-49%; 50-74%; or 75-100% viability to cells)	25 to 49%	75 to 100%	50 to 74%	–
O=C(CO)N1CCc2sc3c(Cl)c(Cl)cc(-c4cncnc4)c3c2C1 [Compound 47]	50 to 74%	50 to 74%	–	–	–	–	0 to 24%	0 to 24%
Nc1ccc(-c2cc(Cl)c(Cl)c3sc4c(c23)CN(C(=O)CO)CC4)cn1 [Compound 49]	25 to 49%	0 to 24%	–	–	–	–	–	–
O=C(CO)N1CCc2sc3c(Cl)c(Cl)cc(-c4cc[nH]n4)c3c2C1 [Compound 50]	0 to 24%	0 to 24%	–	–	–	–	–	–
O=C(CO)N1CCc2sc3c(Cl)c(Cl)cc(-c4cn[nH]c4)c3c2C1 [Compound 51]	0 to 24%	25 to 49%	+++ (+, ++, and +++ mean the compound respectively shows 25-49%; 50-74%; or 75-100% viability to cells)	+++ (+, ++, and +++ mean the compound respectively shows 25-49%; 50-74%; or 75-100% viability to cells)	25 to 49%	75 to 100%	0 to 24%	–
O=C(CO)N1CCc2sc3c(Cl)c(Cl)cc(-c4ccco4)c3c2C1 [Compound 52]	0 to 24%	50 to 74%	+++ (+, ++, and +++ mean the compound respectively shows 25-49%; 50-74%; or 75-100% viability to cells)	+++ (+, ++, and +++ mean the compound respectively shows 25-49%; 50-74%; or 75-100% viability to cells)	25 to 49%	75 to 100%	0 to 24%	–
CC(C)(N)C(=O)N1CCc2sc3c(Cl)c(Cl)cc(-c4cc[nH]n4)c3c2C1 [Compound 55]	0 to 24%	0 to 24%	–	–	–	–	–	–
CC(C)(N)C(=O)N1CCc2sc3c(Cl)c(Cl)cc(-c4ccc(N)nc4)c3c2C1 [Compound 56]	0 to 24%	50 to 74%	+ (+, ++, and +++ mean the compound respectively shows 25-49%; 50-74%; or 75-100% viability to cells)	− (Cell viability <24%, in THP1 cells is expressed as “−”)	75 to 100%	75 to 100%	–	–
Nc1ccc(-c2cc(Cl)c(Cl)c3sc4c(c23)CN(C(=O)[C@H]2CCCN2)CC4)cn1 [Compound 57]	0 to 24%	50 to 74%	− (Cell viability <24%, in THP1 cells is expressed as “−”)	− (Cell viability <24%, in THP1 cells is expressed as “−”)	75 to 100%	75 to 100%	–	–
O=C(CO)N1CCc2c(sc3c(Cl)c(Cl)ccc23)C1 [Compound 58]	75 to 100%	50 to 74%	–	–	–	–	0 to 24%	–
Cn1ccc(-c2cc(Cl)c(Cl)c3sc4c(c23)CCN(C(=O)CO)C4)n1 [Compound 60]	50 to 74%	25 to 49%	–	–	–	–	–	0 to 24%
O=C(CO)N1CCc2c(sc3c(Cl)c(Cl)cc(-c4cncnc4)c23)C1 [Compound 65]	75 to 100%	25 to 49%	–	–	–	–	–	0 to 24%
CC(C)(N)C(=O)N1CCc2c(sc3c(Cl)c(Cl)cc(-c4cn[nH]c4)c23)C1 [Compound 85]	–	50 to 74%	+ (+, ++, and +++ mean the compound respectively shows 25-49%; 50-74%; or 75-100% viability to cells)	− (Cell viability <24%, in THP1 cells is expressed as “−”)	75 to 100%	75 to 100%	0 to 24%	–
O=C(CO)N1CCc2nc3c(Cl)c(Cl)cc(-c4cncnc4)n3c2C1 [Compound 98]	0 to 24%	0 to 24%	–	–	–	–	–	–
NCC(=O)N1CCc2nc3c(Cl)c(Cl)cc(-c4cncnc4)n3c2C1 [Compound 100]	0 to 24%	0 to 24%	–	–	–	–	–	–
Cn1cc(-c2cc(Cl)c(Cl)c3nc4c(n23)CN(C(=O)CN)CC4)cn1 [Compound 101]	0 to 24%	0 to 24%	–	–	–	–	–	–

— patent publication US20250163052A1, “cGAS INHIBITORS AND USES THEREOF” (Cornell University, priority 2022, published 2025)
